Reference: patent publication US8933018B2, “Boron containing polybasic bacterial efflux pump inhibitors and therapeutic uses thereof” (priority 2011, dated 2015)

Each compound was assayed on P. aeruginosa, PAM1723, overexpressing the MexAB-OprM efflux pump. Conditions: lowest EPI concentration giving antibacterial activity with levofloxacin at 1/8 of its MIC, MHB, 20 h at 35° C.
Format: cell-based, Pseudomonas aeruginosa
Method: All EPI compounds were readily soluble in water and stock solutions were prepared at a final concentration of 10 mg/ml. Stock solutions were further diluted, according to the needs of the particular assay, in Mueller Hinton Broth (MHB). Stock solution was stored at […].
The checkerboard assay was performed in microtiter plates. […] EPIs were diluted in the y-axis, each row containing a single concentration of an EPI. […] The assay was performed in MHB with a final bacterial inoculum of 5 times 10^5 CFU/ml (from an early-log phase culture). Microtiter plates were incubated during 20 h at 35° C. and were read using a microtiter plate reader (Molecular Devices) at 650 nm as well as visual observation using a microtiter plate-reading mirror.

SMILES | MPC8 (Minimum Potentiating Concentration)
NCCN(CCN)C(=O)CC[C@H](N)C(=O)N[C@H](CCc1ccc(C(F)(F)F)cc1)C(=O)NCC1OB(O)c2ccccc21 (stereo in doubt) [Compound 36, (S)-2-amino-N5,N5-bis(2-aminoethyl)-N1-((R)-1-(((R)-1-hydroxy-1,3-dihydrobenzo[c][1,2]oxaborol-3-yl)methylamino)-1-oxo-4-(4-(trifluoromethyl)phenyl)butan-2-yl)pentanediamide] | B (B = MPC8 of 2.5 μg/ml to less than 10 μg/mL.)
NCCN(CCN)C(=O)CC[C@H](N)C(=O)N[C@H](Cc1ccc(C(F)(F)F)cc1)C(=O)Nc1ccc2c(c1)B(O)OC2 [Compound 1, (S)-2-amino-N5,N5-bis(2-aminoethyl)-N1-((R)-1-(1-hydroxy-1,3-dihydrobenzo[c][1,2]oxaborol-6-ylamino)-1-oxo-3-(4-(trifluoromethyl)phenyl)propan-2-yl)pentanediamide] | C (C = MPC8 of 10 μg/mL or greater.)
NCCN(CCN)C(=O)CC[C@H](N)C(=O)N[C@H](Cc1ccc(C(F)(F)F)cc1)C(=O)NCc1ccc(B(O)O)cc1 [Compound 3, 4-(((R)-2-((S)-2-amino-5-(bis(2-aminoethyl)amino)-5-oxopentanamido)-3-(4-(trifluoromethyl)phenyl)propanamido)methyl)phenylboronic acid] | C (C = MPC8 of 10 μg/mL or greater.)
NCCN(CCN)C(=O)C[C@H](N)C(=O)N[C@H](C(=O)Nc1ccc2c(c1)B(O)OC2)[C@H](O)c1ccc(C(F)(F)F)cc1 [Compound 4, (S)-2-amino-N4,N4-bis(2-aminoethyl)-N1-((1R,2S)-1-hydroxy-3-(1-hydroxy-1,3-dihydrobenzo[c][1,2]oxaborol-6-ylamino)-3-oxo-1-(4-(trifluoromethyl)phenyl)propan-2-yl)succinamide] | C (C = MPC8 of 10 μg/mL or greater.)
NCCN(CCN)C(=O)C[C@H](N)C(=O)N[C@H](Cc1ccc(C(F)(F)F)cc1)C(=O)Nc1ccc2c(c1)B(O)OC2 [Compound 5, (S)-2-amino-N4,N4-bis(2-aminoethyl)-N1-((R)-1-(1-hydroxy-1,3-dihydrobenzo[c][1,2]oxaborol-6-ylamino)-1-oxo-3-(4-(trifluoromethyl)phenyl)propan-2-yl)succinamide] | C (C = MPC8 of 10 μg/mL or greater.)
NCCN(CCN)C(=O)C[C@H](N)C(=O)N[C@H](CCc1ccc(C(F)(F)F)cc1)C(=O)Nc1ccc2c(c1)B(O)OC2 [Compound 7, (S)-2-amino-N4,N4-bis(2-aminoethyl)-N1-((R)-1-(1-hydroxy-1,3-dihydrobenzo[c][1,2]oxaborol-6-ylamino)-1-oxo-4-(4-(trifluoromethyl)phenyl)butan-2-yl)succinamide] | B (B = MPC8 of 2.5 μg/ml to less than 10 μg/mL.)
NCCN(CCN)C(=O)CC[C@H](N)C(=O)N[C@H](Cc1ccc(C(F)(F)F)cc1)C(=O)Nc1ccccc1B(O)O [Compound 8, 2-((R)-2-((S)-2-amino-5-(bis(2-aminoethyl)amino)-5-oxopentanamido)-3-(4-(trifluoromethyl)phenyl)propanamido)phenylboronic acid] | C (C = MPC8 of 10 μg/mL or greater.)
NCCN(CCN)C(=O)CC[C@H](N)C(=O)N[C@@H](Cc1ccc(C(F)(F)F)cc1)C(=O)Nc1ccccc1B(O)O [Compound 9, 2-((S)-2-((S)-2-amino-5-(bis(2-aminoethyl)amino)-5-oxopentanamido)-3-(4-(trifluoromethyl)phenyl)propanamido)phenylboronic acid] | C (C = MPC8 of 10 μg/mL or greater.)
NCCN(CCN)C(=O)C[C@H](N)C(=O)N[C@H](Cc1ccc(C(F)(F)F)cc1)C(=O)Nc1cc(B(O)O)cc(C(F)(F)F)c1 [Compound 10, 3-((R)-2-((S)-2-amino-4-(bis(2-aminoethyl)amino)-4-oxobutanamido)-3-(4-(trifluoromethyl)phenyl)propanamido)-5-(trifluoromethyl)phenylboronic acid] | B (B = MPC8 of 2.5 μg/ml to less than 10 μg/mL.)
NCCN(CCN)C(=O)C[C@H](N)C(=O)N[C@@H](Cc1ccc(C(F)(F)F)cc1)C(=O)Nc1cc(B(O)O)cc(C(F)(F)F)c1 [Compound 11, 3-((S)-2-((S)-2-amino-4-(bis(2-aminoethyl)amino)-4-oxobutanamido)-3-(4-(trifluoromethyl)phenyl)propanamido)-5-(trifluoromethyl)phenylboronic acid] | B (B = MPC8 of 2.5 μg/ml to less than 10 μg/mL.)
NCCN(CCN)C(=O)CC[C@H](N)C(=O)N[C@H](CCC1CCCCC1)C(=O)Nc1cc(B(O)O)cc(C(F)(F)F)c1 [Compound 12, 3-((R)-2-((S)-2-amino-5-(bis(2-aminoethyl)amino)-5-oxopentanamido)-4-cyclohexylbutanamido)-5-(trifluoromethyl)phenylboronic acid] | A (A = MPC8 of less than 2.5 μg/mL.)
NCCN(CCN)C(=O)CC[C@H](N)C(=O)N[C@H](CCc1ccc(C(F)(F)F)cc1)C(=O)Nc1cc(B(O)O)cc(C(F)(F)F)c1 [Compound 13, 3-((R)-2-((S)-2-amino-5-(bis(2-aminoethyl)amino)-5-oxopentanamido)-4-(4-(trifluoromethyl)phenyl)butanamido)-5-(trifluoromethyl)phenylboronic acid] | B (B = MPC8 of 2.5 μg/ml to less than 10 μg/mL.)
NCCN(CCN)C(=O)CC[C@H](N)C(=O)N[C@H](Cc1ccc(C(F)(F)F)cc1)C(=O)Nc1cc(B(O)O)cc(C(F)(F)F)c1 [Compound 15, 3-((R)-2-((S)-2-amino-5-(bis(2-aminoethyl)amino)-5-oxopentanamido)-3-(4-(trifluoromethyl)phenyl)propanamido)-5-(trifluoromethyl)phenylboronic acid] | B (B = MPC8 of 2.5 μg/ml to less than 10 μg/mL.)
NCCN(CCN)C(=O)CC[C@H](N)C(=O)N[C@H](Cc1ccc(C(F)(F)F)cc1)C(=O)Nc1ccc(C(F)(F)F)c(B(O)O)c1 [Compound 16, 5-((R)-2-((S)-2-amino-5-(bis(2-aminoethyl)amino)-5-oxopentanamido)-3-(4-(trifluoromethyl)phenyl)propanamido)-2-(trifluoromethyl)phenylboronic acid] | C (C = MPC8 of 10 μg/mL or greater.)
NCCN(CCN)C(=O)CC[C@H](N)C(=O)N[C@H](Cc1ccc(C(F)(F)F)cc1)C(=O)Nc1ccc(B(O)O)c(C(F)(F)F)c1 [Compound 17, 4-((R)-2-((S)-2-amino-5-(bis(2-aminoethyl)amino)-5-oxopentanamido)-3-(4-(trifluoromethyl)phenyl)propanamido)-2-(trifluoromethyl)phenylboronic acid] | C (C = MPC8 of 10 μg/mL or greater.)
N[C@@H]1C[C@H](N)CN(C(=O)CC[C@H](N)C(=O)N[C@H](Cc2ccc(C(F)(F)F)cc2)C(=O)Nc2cc(B(O)O)cc(C(F)(F)F)c2)C1 [Compound 18, 3-((R)-2-((S)-2-amino-5-((3R,5S)-3,5-diaminopiperidin-1-yl)-5-oxopentanamido)-3-(4-(trifluoromethyl)phenyl)propanamido)-5-(trifluoromethyl)phenylboronic acid] | B (B = MPC8 of 2.5 μg/ml to less than 10 μg/mL.)
N[C@@H]1CC(NC(=O)CC[C@H](N)C(=O)N[C@H](Cc2ccc(C(F)(F)F)cc2)C(=O)Nc2cc(B(O)O)cc(C(F)(F)F)c2)C[C@H](N)C1 (stereo partly drawn) [Compound 19, 3-((R)-2-((S)-2-amino-5-((1R,3R,5S)-3,5-diaminocyclohexylamino)-5-oxopentanamido)-3-(4-(trifluoromethyl)phenyl)propanamido)-5-(trifluoromethyl)phenylboronic acid] | B (B = MPC8 of 2.5 μg/ml to less than 10 μg/mL.)
NCC(O)(CN)CNC(=O)CC[C@H](N)C(=O)N[C@H](CCc1ccc(C(F)(F)F)cc1)C(=O)Nc1cc(B(O)O)cc(C(F)(F)F)c1 [Compound 21, 3-((R)-2-((S)-2-amino-5-(3-amino-2-(aminomethyl)-2-hydroxypropylamino)-5-oxopentanamido)-4-(4-(trifluoromethyl)phenyl)butanamido)-5-(trifluoromethyl)phenylboronic acid] | B (B = MPC8 of 2.5 μg/ml to less than 10 μg/mL.)
NCC(O)(CN)CNC(=O)CC[C@H](N)C(=O)N[C@H](CCc1ccc(C(F)(F)F)cc1)C(=O)Nc1cccc(B(O)O)c1 [Compound 22, 3-((R)-2-((S)-2-amino-5-(3-amino-2-(aminomethyl)-2-hydroxypropylamino)-5-oxopentanamido)-4-(4-(trifluoromethyl)phenyl)butanamido) phenylboronic acid] | B (B = MPC8 of 2.5 μg/ml to less than 10 μg/mL.)
N[C@@H]1C[C@H](N)C[C@H](NC(=O)CC[C@H](N)C(=O)N[C@H](CCc2ccc(C(F)(F)F)cc2)C(=O)Nc2cccc(B(O)O)c2)C1 [Compound 23, 3-((R)-2-((S)-2-amino-5-((1S,3R,5S)-3,5-diaminocyclohexylamino)-5-oxopentanamido)-4-(4-(trifluoromethyl)phenyl)butanamido)phenylboronic acid] | B (B = MPC8 of 2.5 μg/ml to less than 10 μg/mL.)
N[C@@H]1C[C@H](N)CN(C(=O)CC[C@H](N)C(=O)N[C@H](CCc2ccc(C(F)(F)F)cc2)C(=O)Nc2cccc(B(O)O)c2)C1 [Compound 24, 3-((R)-2-((S)-2-amino-5-((3R,5S)-3,5-diaminopiperidin-1-yl)-5-oxopentanamido)-4-(4-(trifluoromethyl)phenyl)butanamido)phenylboronic acid] | B (B = MPC8 of 2.5 μg/ml to less than 10 μg/mL.)
